Laboratory results: PubChem BioAssay AID1259411 (Chemical Carcinogenesis Research Information System (CCRIS), 2018)
Calls of active or inactive are those of the source. The rule behind the calls is not given here.

Test system: rodent carcinogenicity bioassays, tumor incidence
Test: CCRIS carcinogenicity studies
Summary of the method: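 Archive of carcinogenicity, mutagenicity, tumor promotion and tumor inhibition results drawn from journals, NCI reports and other sources, expert-reviewed; covers 1985-2011 and is no longer updated.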

Structure (SMILES): CC(C)[C@@H]1CC[C@@H](C)C[C@H]1O
- carcinogen call (Species: MOUSE, Strain/Sex: B6C3F1/FEMALE, Route: ORAL, Dose: 0, 2000, 4000 PPM IN DIET, Dose: 0, 2000, 4000 PPM IN DIET): inactive; negative
- carcinogen call (Species: MOUSE, Strain/Sex: B6C3F1/MALE, Route: ORAL, Dose: 0, 2000, 4000 PPM IN DIET, Dose: 0, 2000, 4000 PPM IN DIET): inactive; negative
- carcinogen call (Species: RAT, Strain/Sex: F344/FEMALE, Route: ORAL, Dose: 0, 3750, 7500 PPM IN DIET, Dose: 0, 3750, 7500 PPM IN DIET): inactive; negative
- carcinogen call (Species: RAT, Strain/Sex: F344/MALE, Route: ORAL, Dose: 0, 3750, 7500 PPM IN DIET, Dose: 0, 3750, 7500 PPM IN DIET): inactive; negative

Structure (SMILES): Cc1ccc(N)cc1Cl
- carcinogen call (Species: MOUSE, Strain/Sex: B6C3F1/FEMALE, Route: ORAL, Dose: 0, 300, 600 PPM IN DIET, Dose: 0, 300, 600 PPM IN DIET): inactive; negative
- carcinogen call (Species: MOUSE, Strain/Sex: B6C3F1/MALE, Route: ORAL, Dose: 0, 600, 1200 PPM IN DIET, Dose: 0, 600, 1200 PPM IN DIET): inactive; negative
- carcinogen call (Species: RAT, Strain/Sex: F344/FEMALE, Route: ORAL, Dose: 0, 1635, 3269 PPM IN DIET, TWA, Dose: 0, 1635, 3269 PPM IN DIET, TWA): inactive; negative
- carcinogen call (Species: RAT, Strain/Sex: F344/MALE, Route: ORAL, Dose: 0, 1635, 3269 PPM IN DIET, TWA, Dose: 0, 1635, 3269 PPM IN DIET, TWA): inactive; negative

Structure (SMILES): O=C(O)CNCP(=O)(O)O
- carcinogen call (Species: RAT, Strain/Sex: WISTAR/FEMALE, Route: ORAL, Dose: 0, 300, 900, 2700 MG/L IN DRINKING WATER FOR 2 YR (STUDY DURATION: 2 YR), Dose: 0, 300, 900, 2700 MG/L IN DRINKING WATER FOR 2 YR (STUDY DURATION: 2 YR)): inactive; negative
- carcinogen call (Species: RAT, Strain/Sex: WISTAR/MALE, Route: ORAL, Dose: 0, 300, 900, 2700 MG/L IN DRINKING WATER FOR 2 YR (STUDY DURATION: 2 YR), Dose: 0, 300, 900, 2700 MG/L IN DRINKING WATER FOR 2 YR (STUDY DURATION: 2 YR)): inactive; negative
- carcinogen call (Species: Rat, Strain/Sex: Sprague-Dawley/Female (50/Group), Route: Oral, Dose: 0, 2000, 8000, 20,000 ppm of 96.5% glyphosate, isopropylamine salt in diet for 24 mo, study duration 24 mo, Dose: 0, 2000, 8000, 20,000 ppm of 96.5% glyphosate, isopropylamine salt in diet for 24 mo, study duration 24 mo, Tumor Site: Type of Lesion: Adrenal cortex: carcinoma (3/50 in high dose group vs 0 in all other groups)): active; positive. (department of pesticides regulation reviewer describes as a possible
- carcinogen call (Species: Rat, Strain/Sex: Sprague-Dawley/Male (50/Group), Route: Oral, Dose: 0, 2000, 8000, 20,000 ppm of 96.5% glyphosate, isopropylamine salt in diet for 24 mo, study duration 24 mo, Dose: 0, 2000, 8000, 20,000 ppm of 96.5% glyphosate, isopropylamine salt in diet for 24 mo, study duration 24 mo): inactive; negative

Structure (SMILES): O=C1C(O)N=C(c2ccccc2F)c2cc(Cl)ccc2N1CCO (stereo unspecified)
- carcinogen call (Species: RAT, Strain/Sex: SPRAGUE-DAWLEY/FEMALE, Route: ORAL, Dose: 0, 3, 10, 30 MG/KG IN THE DIET FOR 104 WK (STUDY DURATION: 104 WK), Dose: 0, 3, 10, 30 MG/KG IN THE DIET FOR 104 WK (STUDY DURATION: 104 WK)): inactive; negative
- carcinogen call (Species: RAT, Strain/Sex: SPRAGUE-DAWLEY/MALE, Route: ORAL, Dose: 0, 3, 10, 30 MG/KG IN THE DIET FOR 104 WK (STUDY DURATION: 104 WK), Dose: 0, 3, 10, 30 MG/KG IN THE DIET FOR 104 WK (STUDY DURATION: 104 WK)): inactive; negative

Structure (SMILES): c1ccc2c(c1)ccc1nc3c(ccc4ccccc43)cc12
- carcinogen call (Species: MOUSE, Route: DERMAL, Tumor Site: Type of Lesion: INTEGUMENTARY SYSTEM (SKIN)): active; positive
- carcinogen call (Species: MOUSE, Route: SUBCUTANEOUS, Tumor Site: Type of Lesion: INJECTION SITE, LUNG): active; positive
- carcinogen call (Species: RAT, Strain/Sex: OSBORNE-MENDEL/FEMALE, Route: LUNG IMPLANT, Dose: 0, 0.1, 0.3, 1.0 MG IN BEESWAX/TRICAPRYLIN (STUDY DURATION: LIFETIME), Dose: 0, 0.1, 0.3, 1.0 MG IN BEESWAX/TRICAPRYLIN (STUDY DURATION: LIFETIME), Tumor Site: Type of Lesion: LUNG: EPIDERMOID CARCINOMA): active; positive

Structure (SMILES): CCN(CC)CCCNC(=O)Cn1ncc(-c2ccccc2)c1-c1ccccc1
- carcinogen call (Species: RAT, Strain/Sex: SPRAGUE-DAWLEY/FEMALE, Route: GAVAGE, Dose: 0, 20, 80, 160 MG/KG 1/D FOR 1 YR (STUDY DURATION: 1 YR), Dose: 0, 20, 80, 160 MG/KG 1/D FOR 1 YR (STUDY DURATION: 1 YR)): inactive; negative
- carcinogen call (Species: RAT, Strain/Sex: SPRAGUE-DAWLEY/MALE, Route: GAVAGE, Dose: 0, 20, 80, 160 MG/KG 1/D FOR 1 YR (STUDY DURATION: 1 YR), Dose: 0, 20, 80, 160 MG/KG 1/D FOR 1 YR (STUDY DURATION: 1 YR)): inactive; negative

Structure (SMILES): COc1cc2c(c3ccc4ccccc4c13)CCC2
- carcinogen call (Species: MOUSE, Strain/Sex: TO/MALE, FEMALE, Route: DERMAL, Dose: 0, 50 UG (10 µL OF A 0.5% W/V TOLUENE SOLUTION) 2/WK FOR 70 WK (STUDY DURATION: 70 WK), Tumor Site: Type of Lesion: SKIN: PAPILLOMA OR CARCINOMA): active; positive

Structure (SMILES): CC(=O)Nc1ccc(-c2ccc(NC(C)=O)cc2)cc1
- carcinogen call (Species: RAT, Route: INTRAPERITONEAL, Tumor Site: Type of Lesion: EAR (CANAL), MAMMARY GLAND, INTEGUMENTARY SYSTEM (SKIN), Tumor Site: Type of Lesion: EAR (CANAL), MAMMARY GLAND, INTEGUMENTARY SYSTEM (SKIN)): active; positive
- carcinogen call (Species: RAT, Route: ORAL, Tumor Site: Type of Lesion: EAR (CANAL)): active; positive
- carcinogen call (Species: RAT, Route: SUBCUTANEOUS, Tumor Site: Type of Lesion: MAMMARY GLAND, LIVER, EAR (ZYMBAL GLAND), Tumor Site: Type of Lesion: MAMMARY GLAND, LIVER, EAR (ZYMBAL GLAND)): active; positive

Structure (SMILES): NC(=O)N(CCO)N=O
- carcinogen call (Species: HAMSTER, Strain/Sex: SYRIAN/FEMALE, Route: GAVAGE, Dose: 0, 14 MG/ML ((0.2 ML OF A SOLUTION IN ETHYL ACETATE/CORN OIL (1:2)) 1/WK FOR 22 WK (STUDY DURATION: LIFE SPAN), Tumor Site: Type of Lesion: LIVER: HEMANGIOSARCOMA, SPLEEN: HEMANGIOSARCOMA): active; positive
- carcinogen call (Species: HAMSTER, Strain/Sex: SYRIAN/MALE, Route: GAVAGE, Dose: 0, 14 MG/ML ((0.2 ML OF A SOLUTION IN ETHYL ACETATE/CORN OIL (1:2)) 1/WK FOR 22 WK (STUDY DURATION: 20 WK), Tumor Site: Type of Lesion: LIVER: HEMANGIOSARCOMA, PANCREAS: CARCINOMA OR ADENOMA, SPLEEN: HEMANGIOSARCOMA, FORESTOMACH: SQUAMOUS CELL CARCINOMA OR, Tumor Site: Type of Lesion: LIVER: HEMANGIOSARCOMA, PANCREAS: CARCINOMA OR ADENOMA, SPLEEN: HEMANGIOSARCOMA, FORESTOMACH: SQUAMOUS CELL CARCINOMA OR): active; positive
- carcinogen call (Species: RAT, Strain/Sex: F344/MALE, Route: GAVAGE, Dose: 0, 2.4 MG IN 0.2 ML ETHYL ACETATE/CORN OIL (1:1) 2/WK FOR 30 WK (TOTAL DOSE: 168 MG) (STUDY DURATION: 80 WK), Tumor Site: Type of Lesion: LUNG: CARCINOMA OR ADENOMA, THYROID: CARCINOMA OR ADENOMA): active; positive

Structure (SMILES): O=S(=O)(O)OCc1ccc2ccc3cccc4ccc1c2c34
- carcinogen call (Species: RAT, Strain/Sex: SPRAGUE-DAWLEY/FEMALE, Route: SUBCUTANEOUS, Dose: 0, 0.2 UMOL IN 0.1 ML SESAME OIL:DMSO (9:1) 1/2 D FOR 20 DOSES (STUDY DURATION: 52 WK), Tumor Site: Type of Lesion: INJECTION SITE: SARCOMA): active; positive

Structure (SMILES): O=[N+]([O-])c1cc(N(CCO)CCO)ccc1NCCO
- carcinogen call (Species: MOUSE, Strain/Sex: B6C3F1/FEMALE, Route: ORAL, Dose: 0, 10000, 20000 PPM IN DIET FOR 104 WK, Dose: 0, 10000, 20000 PPM IN DIET FOR 104 WK): inactive; negative
- carcinogen call (Species: MOUSE, Strain/Sex: B6C3F1/MALE, Route: ORAL, Dose: 0, 5000, 10000 PPM IN DIET FOR 104 WK, Dose: 0, 5000, 10000 PPM IN DIET FOR 104 WK): inactive; negative
- carcinogen call (Species: RAT, Strain/Sex: F344/FEMALE, Route: ORAL, Dose: 0, 10000, 20000 PPM IN DIET FOR 103 WK, Dose: 0, 10000, 20000 PPM IN DIET FOR 103 WK): inactive; negative
- carcinogen call (Species: RAT, Strain/Sex: F344/MALE, Route: ORAL, Dose: 0, 5000, 10000 PPM IN DIET FOR 103 WK, Dose: 0, 5000, 10000 PPM IN DIET FOR 103 WK): inactive; negative
